Like-named read-outs stand apart in the source and are kept apart here.
How the values were obtained:
in vitro [1] = details: human
EBOV L (RdRp) activity = assay: cells; assay type: cell-based, Ebola virus; details: for IC50: Zaire ebolavirus, HEK293T/17, 24 h, read-out: IC50 (minigenome luciferase)
EBOV [2] = assay: microbe, parasite or virus in culture; assay type: cell-based, Ebola virus; details: Zaire ebolavirus; for IC50: read-out: Huh7 IC50; for IC90: read-out: Huh7 IC90
[3] = tested on: HIV-1 particles pseudotyped with VSIV G; assay type: cell-based, human immunodeficiency virus 1
[4] = tested on: human parainfluenza virus 3; details: cited from earlier work
EBOV [5] = assay: microbe, parasite or virus in culture; assay type: cell-based, Ebola virus; details: Zaire ebolavirus
[6] = tested on: Lassa virus strain Josiah (LASV); assay: microbe, parasite or virus in culture; assay type: cell-based; details: read-out: Max at conc (percent inhibition)
[7] = tested on: Marburg virus/H. sapiens-tc/AGO/2005/Angola-1379v (MARV); assay: organism not typed; assay type: cell-based
[8] = mouse, in vivo; cited from earlier work
Sindbis virus = details: cited from earlier work
vaccinia virus = details: cited from earlier work
reovirus type 1 = details: cited from earlier work
[9] = tested on: recombinant cowpox virus expressing GFP (rCPXV-GFP); assay: microbe, parasite or virus in culture; assay type: cell-based; details: read-out: Max at conc (percent inhibition)
[10] = tested on: Ebola virus/H.sapiens-tc/GIN/2014/Makona-C05 (EBOV); assay: organism not typed; assay type: cell-based
coxsackie virus B4 = details: cited from earlier work
in vitro [11] = assay: in vitro
African green monkeys = details: monkey, in vivo; cited from earlier work
patients = details: human, in vivo; cited from earlier work
[12] = tested on: recombinant vaccinia virus expressing GFP (rVACV-GFP); assay: organism not typed; assay type: cell-based
herpes simplex virus 1 = details: cited from earlier work
[13] = tested on: vesicular stomatitis Indiana virus; details: cited from earlier work
HEK 293T/T17 cells = details: human
herpes simplex virus 2 = details: cited from earlier work
poliovirus 1 = details: cited from earlier work
[14] = read-out: Max at conc (percent inhibition)
[15] = Orthopoxvirus vaccinia, read-out: Max at conc (percent inhibition)

## COc1cc(Cc2cnc(N)nc2N)cc(OC)c1OC [NSC 106568]
In vitro [1]
  CC50: > 60 µM

## CN(Cc1cnc2nc(N)nc(N)c2n1)c1ccc(C(=O)N[C@@H](CCC(=O)O)C(=O)O)cc1 [NSC 740]
In vitro [1]
  CC50: 0.13 µM

## CCC(CC)COC(=O)[C@H](C)N[P@](=O)(OC[C@H]1O[C@@](C#N)(c2ccc3c(N)ncnn23)[C@H](O)[C@@H]1O)Oc1ccccc1 [Remdesivir, remdesivir, reference compound]
EBOV L (RdRp) activity
  IC50 of constant ratio S:R, relative to remdesivir concentration: 1,444 nM
  IC50: 1440 nM
EBOV [2]; Huh-7, 1 h
  IC50: 87.7 nM
  IC90: 180 nM
EBOV [2]; Huh-7, 2 h
  IC50: 74.6 nM
  IC90: 154 nM
EBOV [2]; Huh-7, 4 h
  IC50: 105 nM
  IC90: 188 nM
EBOV [2]; Huh-7, 8 h
  IC50: 116 nM
  IC90: 224 nM
EBOV [2]; Huh-7, 24 h
  IC50: 117 nM
  IC90: 231 nM

## NSC 133071
HEK 293T cells
  CC50: > 60 µM

## C#CCC(Cc1cnc2nc(N)nc(N)c2n1)c1ccc(C(=O)N[C@@H](CCC(=O)O)C(=O)O)cc1 (stereo partly drawn) [NSC 754230]
In vitro [1]
  CC50: 0.004 µM

## CCc1nc(N)nc(N)c1-c1ccc(Cl)cc1 [NSC 3061]
In vitro [1]
  CC50: 22 µM

## COc1cc(NS(C)(=O)=O)ccc1Nc1c2ccccc2nc2ccccc12 [NSC 249992]
In vitro [1]
  CC50: 22 µM

## sangivamycin HCl [NSC 143648]
HEK 293T cells
  CC50: > 60 µM

## NC(=O)c1cn([C@@H]2O[C@H](CO)[C@@H](O)[C@H]2O)c2ncnc(N)c12 [Sangivamycin, 4-amino-7-(β-D-ribofuranosyl)pyrrolo[2,3-d]pyrimidine-5-carboxamide]
[3]
  HIV-1 pseudotype transduction: did not affect
[4]
  IC50: 65 nM
EBOV [5]
  IC50: 60 ± 3 nM
EBOV [5]; [14]
  inhibition at 0.15 µM: 100%
[6]
  inhibition at 0.3 µM: 104%
  inhibition at 0.6 µM: 99.7%
[7]; read-out: IC50 values (range across cell types)
  IC50: 100 to 300 nM
[7]; [14]
  inhibition at 0.6 µM: 100%
[8]
  tissue retention: retained in tissues for days
Sindbis virus
  IC50: 646 nM
Vaccinia virus
  IC50: 65 nM
Reovirus type 1
  IC50: 323 nM
EBOV L (RdRp) activity
  IC50 of constant ratio S:R, relative to sangivamycin concentration: 46.4 nM
  reduction of luciferase activity vs untreated control: greater than 80%
  IC50: 46.4 nM
[9]
  inhibition at 0.6 µM: 97%
[10]
  IC50: 110 ± 8 nM
[10]; Zaire ebolavirus
  IC50: 60 ± 3 nM
[10]; Zaire ebolavirus, read-out: IC50 values (range across cell types)
  IC50: 40 to 100 nM
[10]; Zaire ebolavirus, read-out: Max at conc (percent inhibition)
  inhibition at 0.6 µM: 100%
Coxsackie virus B4
  IC50: 129 nM
EBOV [2]; Huh-7, 1 h
  IC50: 103 nM
  IC90: 148 nM
EBOV [2]; Huh-7, 2 h
  IC50: 106 nM
  IC90: 143 nM
EBOV [2]; Huh-7, 4 h
  IC50: 57 nM
  IC90: 132 nM
EBOV [2]; Huh-7, 8 h
  IC50: 72.1 nM
  IC90: 163 nM
EBOV [2]; Huh-7, 24 h
  IC50: 64.1 nM
  IC90: 236 nM
In vitro [11]
  CC50: > 600 nM
African green monkeys
  tolerability: tolerated
patients
  activity against cancer in clinical trials: inactive
  tolerability in patients: well tolerated
[12]
  IC50: > 4 nM
[12]; Orthopoxvirus vaccinia
  IC50: 20 ± 4 nM
[12]; [15]
  inhibition at 0.075 µM: 98%
  inhibition at 0.3 µM: 95.4%
Herpes simplex virus 1
  IC50: 226 nM
[13]
  IC50: 65 nM
HEK 293T/T17 cells
  cytotoxicity: approximately 30%
Herpes simplex virus 2
  IC50: 226 nM
Poliovirus 1
  IC50: 226 nM

— article PMC7824103 (Viruses, 2020)
